Series [1] deals with Pseudomonas aeruginosa (NCTC 7244). The series can be described thus: MIC in HIB medium at different inocula (turbidity). The format is cell-based. As to conditions: NCTC7244, 18 h, 37° C. As for the experimental part:
(§1) The compounds obtained in Synthesis Examples 1 and 2 were tested in the following manner.
(§2) A suspension of Pseudomonas aeruginosa (NCTC 7244) cultivated at 37° C. for 18 hours in a heart infusion broth medium (HIB medium) in a final amount of 10^5, 10^6 and 10^7 cells/ml in an HIB medium containing each of the test compounds which was obtained in the same way as in Referential Example 1 except that the maximum concentration of the test compound was 200 μg/ml. The bacterial strain was cultivated at 37° C. for 18 hours, and the turbidity of the culture broth was evaluated with the naked eye. The minimum concentration of the test compound at which no turbidity was noted was defined as MIC.

Series [2] in a line: blood level in rats after intramuscular administration. The format is in vivo. The conditions noted are these: rat, im, 20 mg/kg i.m., serum, read-out: Blood level after administration (average value ± standard deviation); for concentration at 0.25 h: 15 minutes; for concentration at 0.5 h: 30 minutes; for concentration at 1 h: 60 minutes; for concentration at 2 h: 120 minutes. As for the experimental part: The compounds of this invention prepared in synthesis Examples 1 and 2 were each administered intramuscularly to rats, and the concentrations of the compounds in the blood were determined.
Each of the test compounds was intramuscularly injected into the femoral part of rats in a customary manner in a dose of 20 mg/kg for each rat. The blood was drawn by incising the cervical artery and vein at the end of 15 minutes, 30 minutes, 60 minutes, 120 minutes, and 240 minutes after the injection. The separated sera were used for the measurement of the blood level of the test compound. The concentrations of the test compounds in the sera were determined by a thin-layer cup method using Micrococcus luteus ATCC 9341 as an assay microorganism.

For series [3], the system named is Serratia marcescens (S-33). Description: minimum growth inhibitory concentration (MIC) method. The format is cell-based. The conditions noted are these: HIA medium, 37° C., 18 hours, sodium salts. As for the experimental part:
(§3) The antibacterial activities of the cephalosporins of this invention were measured using the sodium salts of the compounds obtained in Synthesis Examples 1 and 2. The procedure and the results are shown in Referential Example 1.
(§4) Carbenicillin sodium salt (CB-PC) and cephazoline sodium salt (CEZ) were used as controls.
(§5) The antibacterial activities of the test compounds against various Gram-positive and Gram-negative bacteria were determined in a customary manner by the minimum growth inhibitory concentration method (MIC method).
(§6) A commercially available heart infusion agar medium (to be abbreviated HIA medium) was used as an assay medium, and a commercially available trypto-soy bouillon medium (to be abbreviated TSB) was used as a medium for the growth of test bacterial strains.
(§7) The test compound was diluted with the melted HIA medium to 100 μg/ml as a maximum concentration, and then serially diluted double. The dilutions were poured into sterilized Petri dishes respectively and allowed to cool and solidify to prepare plates containing the test compound.
(§8) The test bacterial strain was cultivated at 37° C. for 18 to 24 hours in the TSB medium. The culture broth was diluted to 50 to 500 times with a freshly prepared TSB culture medium, and one platinum loopful of the dilution was inoculated in each of the plates containing the test compound. The plate was incubated at 37° C. for 18 hours, and the state of growth of the strain on the plate was observed, and the minimum growth inhibitory concentration (MIC) of the test compound was determined.

For series [4], the system named is Pseudomonas aeruginosa (NCTC 7244). The series can be described thus: minimum bactericidal concentration (MBC). As to conditions: NCTC7244, 18 h, subculture on HIA medium, 37° C. It is filed as cell-based. As for the experimental part:
as §1, §2
After the determination of MIC, one platinum loopful of each of the culture broths in various concentrations was taken out from the test tubes, and inoculated in a separately provided plate of an HIA medium not containing the test compound, and incubated at 37° C. for 18 hours. The growth of the bacterial strain was evaluated.

Series [5] has as its system Klebsiella pneumonia (F-5089). The series can be described thus: minimum growth inhibitory concentration (MIC) method. The format is cell-based. As to conditions: Klebsiella pneumoniae, HIA medium, 37° C., 18 hours, sodium salts. As for the experimental part:
as §3, §4, §5, §6, §7, §8

≈ marks a conversion by molar mass, not a printed value.

On to `Cn1nnnc1SCC1=C(C(=O)O)N2C(=O)C(NC(=O)[C@H](NC(=O)c3cnc4c(c3O)C(=O)CCC4)c3ccccc3)C2SC1` (single isomer, unassigned) [Synthesis Example 1, 7-[D-(-)-α-(4-hydroxy-5-oxo-5,6,7,8-tetrahydroquinoline-3-carboxamide)phenylacetamido)-3-[[(1-methyl-1H-tetrazol-5-yl)thio]methyl]-Δ^3-cephem-4-carboxylic acid], for which the minimum inhibitory concentration (MIC) in series [1] (inoculum 10^5 cells/ml) turned out to be 12.5 µg/mL (≈ 19.2 µM); in series [1] (inoculum 10^6 cells/ml) it was 12.5 µg/mL (≈ 19.2 µM); in series [1] (inoculum 10^7 cells/ml) it was 25 µg/mL (≈ 38.4 µM); in series [3] it was 3.13 µg/mL. For the same molecule, the concentration at 0.25 h in series [2] came to 12100 ± 3600 ng/mL. In addition, the concentration at 0.5 h in series [2] was 10500 ± 2200 ng/mL. For the same molecule, the concentration at 1 h in series [2] worked out at 9100 ± 3200 ng/mL. For the same molecule, the concentration at 2 h in series [2] is 4800 ± 2100 ng/mL. Further, the minimal bactericidal concentration (MBC) is 12.5 µg/mL (≈ 19.2 µM) in series [4] (inoculum 10^5 cells/ml), 12.5 µg/mL (≈ 19.2 µM) in series [4] (inoculum 10^6 cells/ml) and more than 200 µg/mL in series [4] (inoculum 10^7 cells/ml).

`Cn1nnnc1SCC1=C(C(=O)O)N2C(=O)C(NC(=O)[C@H](NC(=O)c3cnc4c(c3O)C(=O)CCC4)c3ccc(O)cc3)C2SC1` (single isomer, unassigned) [Synthesis Example 2, 7-[D-(-)-α-(4-hydroxy-5-oxo-5,6,7,8-tetrahydroquinoline-3-carboxamide)-α-(4-hydroxyphenyl)acetamido]-3-[[(1-methyl-1H-tetrazol-5-yl)thio]methyl]-Δ^3-cephem-4-carboxylic acid]: the minimal inhibitory concentration (MIC) in series [1] (inoculum 10^5 cells/ml) was found to be 6.25 µg/mL (≈ 9.37 µM); in series [1] (inoculum 10^6 cells/ml) it was 6.25 µg/mL (≈ 9.37 µM); in series [1] (inoculum 10^7 cells/ml) it was 12.5 µg/mL (≈ 18.7 µM); in series [3], 3.13 µg/mL. Further, the concentration at 0.25 h in series [2] came to 20000 ± 1400 ng/mL. Moreover, the concentration at 0.5 h in series [2] came out at 14400 ± 2500 ng/mL. The concentration at 1 h in series [2] worked out at 8000 ± 4000 ng/mL. Further, the concentration at 2 h in series [2] was found to be 3200 ± 1200 ng/mL. Also, the results for the minimum bactericidal concentration (MBC) in series [4] (inoculum 10^5 cells/ml), in series [4] (inoculum 10^6 cells/ml) and in series [4] (inoculum 10^7 cells/ml) were 6.25 µg/mL (≈ 9.37 µM), 12.5 µg/mL (≈ 18.7 µM) and more than 200 µg/mL, respectively.

For the molecule `CC1(C)S[C@@H]2[C@H](NC(=O)C(C(=O)O)c3ccccc3)C(=O)N2[C@H]1C(=O)O` (stereo partly drawn) [CB-PC, disodium-α-carboxybenzyl penicillin, reference compound], the MIC was 50 µg/mL in series [1] (inoculum 10^5 cells/ml); 100 µg/mL in series [1] (inoculum 10^6 cells/ml); 200 µg/mL in series [1] (inoculum 10^7 cells/ml); 50 µg/mL in series [5]; 6.25 µg/mL in series [3]. Also, the minimal bactericidal concentration (MBC) is 100 µg/mL in series [4] (inoculum 10^5 cells/ml), 100 µg/mL in series [4] (inoculum 10^6 cells/ml) and more than 200 µg/mL in series [4] (inoculum 10^7 cells/ml).

Consider `Cc1nnc(SCC2=C(C(=O)O)N3C(=O)[C@@H](NC(=O)Cn4cnnn4)[C@H]3SC2)s1` [CEZ, sodium 7-[1-(1H)-tetrazoylacetamido]-3-[2-(5-methyl-1,3,4-thiadiazoyl)-thiomethyl]-Δ^3, cephem-4-carboxylate, reference compound], for which the minimal inhibitory concentration (MIC) in series [1] (inoculum 10^5 cells/ml) was more than 200 µg/mL; in series [1] (inoculum 10^6 cells/ml) it was more than 200 µg/mL; in series [1] (inoculum 10^7 cells/ml), more than 200 µg/mL; in series [5], 3.13 µg/mL; in series [3] it was more than 100 µg/mL. The MBC in series [4] (inoculum 10^5 cells/ml), in series [4] (inoculum 10^6 cells/ml) and in series [4] (inoculum 10^7 cells/ml) was more than 200 µg/mL throughout.

In general, MIC refers to the smallest concentration in the dilution series that meets the test's criterion for growth inhibition. For orientation: MBC means the smallest concentration meeting the test's criterion for killing.

The values above are taken from patent publication US4283398A, “Cephalosporins” (Mitsui Toatsu Chemicals, Inc., priority 1978, dated 1981).
